Columns and labels:
H3122 cells [1] = test: viability of H3122 cells, sulforodhamine B-based assay, regular medium (CTR) vs STS conditions; type: cell-based; details: H3122 NSCLC cells (EML4-ALK translocation); low glucose 0.5 g/L, 1% FBS (STS) vs regular medium; 72 h
Method: With reference to FIGS. 1A and 1B, 3×10^3 H3122 cells were plated in 96 well plates in regular DMEM medium containing 10% FBS. 24 h later, the cell medium was removed and cells were incubated for 24 h either in the same medium (CTR) or in low-glucose (0.5 g/L) DMEM medium containing 1% FBS (STS). 24 h later cells were treated or not with the indicated concentrations of Crizotinib or […] (TAE). 72 h later, viability was measured with sulforodhamine B-based assays.

H3122 cells [2] = test: H3122 cells in Petri dishes, sulforodhamine B staining after treatment and recovery; type: cell-based; details: H3122, STS conditions, 400 nM, 5 days then 2 days regular medium (FIG. 1C)
Method: With reference to FIG. 1C, 10^5 H3122 cells were plated in 60 mm Petri dishes in regular DMEM medium. 24 h later, the cell medium was removed and cells were incubated for 24 h either in regular medium (CTR) or in STS conditions. 24 h later 400 nM Crizotinib was added (or not) to the cells. 5 days later, the cell medium was removed and the cells were cultured for two additional days in regular DMEM medium. 48 h later, the plates were stained with sulforodhamine B and photographed.

A549 cells = test: viability of A549 cells, sulforodhamine B-based assay, with or without STS; type: cell-based
Method: With reference to FIG. 1D, 3×10^3 A549 cells were plated in 96 well plates and treated with Crizotinib in the presence or absence of STS, as in the experiments of FIGS. 1A and 1B, before viability was measured in sulforodhamine B-based assays.

[3] = test system: phospho-ERK (Thr202/Tyr204); test: immunoblotting of phospho-ERK and total ERK in H3122 cell lysates; type: cell-based; details: H3122, 400 nM, 24 h; starved cells compared with cells in standard conditions
Method: With reference to FIG. 1E, 10^5 H3122 cells were plated in 6 well plates in regular DMEM medium containing 10% FBS. 24 h later, the cell medium was removed and cells were incubated for 24 h either in the same medium (CTR) or in low-glucose (0.5 g/L) DMEM containing 1% FBS (STS). 24 h later cells were treated or not with 400 nM Crizotinib. After 24 h, cell were used for cell lysate preparation and phospho-ERK (Thr202/Tyr204), and total ERK levels were detected by immunoblotting.

[4] = test system: H3122 cells engineered to overexpress HRAS or HRAS V12; test: sensitivity of H3122 cells engineered to overexpress HRAS or HRAS V12; type: cell-based; details: data not shown
H3122 xenografts = test: H3122 xenograft growth in mice; type: in vivo, BALB/c athymic mice (nu+/nu+)
Method: With reference to FIG. 2A, six- to eight-week-old BALB/c athymic mice (nu+/nu+) were injected s.c. with 5×10^6 H3122 cells. When tumors became palpable, mouse were randomly assigned to one of four arms (six mice per treatment arm): control—normal diet (—); Crizotinib—normal diet with 3 cycles of Crizotinib (25 mg/kg/day via oral gavage for 5 days a week, Mon-Fri); STS [fasting (water only) for 48 h (Sun-Tue) for three cycles at 1-week intervals]; STS+Crizotinib. Tumor size was measured daily and tumor volume was calculated using the formula: tumor volume=(w^2×W)×π/6, where “w” and “W” are “minor side” and “major side” (in mm), respectively. At the end of treatment, mice were euthanized and tumor masses were excised and weighted (see FIG. 2B). Mouse weight was also monitored daily.

SKBR3 cells = test: viability of SKBR3 cells, sulforodhamine B-based assay, CTR vs STS; type: cell-based; details: SKBR3 HER2+ BC cells, 100 nM, 72 h
Method: With reference to FIGS. 3A and 3B, 3×10^3 SKBR3 (FIG. 3A) or BT474 (FIG. 3B) cells/well were plated in 96 well plates in regular DMEM medium containing 10% FBS and 2.5 g/L glucose. 24 h later, the cell medium was removed and cells were incubated for 24 h either in the same medium (CTR) or in low-glucose (0.5 g/L) DMEM medium containing 1% FBS (STS). 24 h later cells were treated or not with 100 nM Lapatinib. 72 h later, viability was measured in sulforodhamine B-based assays.
With reference to FIGS. 3D and 3E, BT474 or MCF7 cells were plated as detailed with regard to FIGS. 3A and 3B, treated with 100 nM CP724714 (FIG. 3D) or Lapatinib (FIG. 3E) with or without STS conditions as detailed with respect to FIGS. 3A and 3B before viability was detected.

BT474 cells = test: viability of BT474 cells, sulforodhamine B-based assay, CTR vs STS; type: cell-based; details: BT474 HER2+ BC cells, 100 nM, 72 h
MCF7 cells = test: viability of MCF7 cells, with or without STS conditions; type: cell-based
AKT and ERK1/2 signaling [5] = test: immunoblotting of phospho-AKT, total AKT, phospho-ERK and total ERK in SKBR3 cell lysates; type: cell-based; details: SKBR3, 100 nM, 24 h; STS-mimicking conditions compared with Lapatinib alone (FIG. 4A)
Method: (§1) With reference to FIGS. 4A-C, 10^5 SKBR3 (FIG. 4A) or BT474 (FIG. 4B) cells were plated in 6 well plates in regular DMEM medium containing 10% FBS. 24 h later, the cell medium was removed and cells were incubated for 24 h either in the same medium (CTR) or in low-glucose (0.5 g/L) DMEM medium containing 1% FBS (STS). 24 h later cells were treated or not with 100 nM Lapatinib. After 24 h, cell were either used for cell lysate preparation or for flow cytometry assays. Cell lysates were used for phospho-AKT (Ser473), total AKT, phospho-ERK (Thr202/Tyr204), and total ERK level detection by immunoblotting (FIGS. 4A and 4B). Flow cytometry (with a FACS Calibur, BD) was used to estimate cell size (FSC) by acquiring 10,000 events per cell sample (FIG. 4C).

AKT and ERK1/2 signaling [6] = test: immunoblotting of phospho-AKT, total AKT, phospho-ERK and total ERK in BT474 cell lysates; type: cell-based; details: BT474, 100 nM, 24 h; STS-mimicking conditions compared with Lapatinib alone (FIG. 4B)
Method: as §1

C[C@@H](Oc1cc(-c2cnn(C3CCNCC3)c2)cnc1N)c1c(Cl)ccc(F)c1Cl [Crizotinib]
effect of STS conditions on activity (viability of H3122 cells) (H3122 cells [1]): strongly potentiated | killing of NSCLC cells (H3122 cells [2]): virtual complete killing | sensitivity of A549 cells (viability) (A549 cells; A549 NSCLC cells without EML4-ALK translocation): insensitive | effect of STS on activity in A549 cells (A549 cells; A549 cells, STS vs regular medium): did not increase the activity | blocking of MAPK pathway signaling (ERK1/2 phosphorylation) [3]: more effective at blocking signaling through the MAPK pathway | sensitivity of HRAS or HRAS V12 overexpressing H3122 cells [4]: resistant | activity on H3122 xenografts of the combination with fasting (H3122 xenografts; 25 mg/kg/day oral gavage plus 48 h fasting cycles, compared with each treatment alone, p<0.05): more active than either type of treatment alone | growth of H3122 xenografts (H3122 xenografts; normal diet, 25 mg/kg/day oral gavage, 5 days a week, 3 cycles): effectively reduced the growth

CS(=O)(=O)CCNCc1ccc(-c2ccc3ncnc(Nc4ccc(OCc5cccc(F)c5)c(Cl)c4)c3c2)o1 [Lapatinib]
sensitization by STS conditions (viability of SKBR3 cells) (SKBR3 cells): strongly sensitized | sensitization by STS conditions (viability of BT474 cells) (BT474 cells): strongly sensitized | sensitivity of MCF7 cells (viability) (MCF7 cells; MCF7 cells without HER2 amplification, 100 nM): insensitive | effect of STS on activity in MCF7 cells (MCF7 cells; MCF7 cells, STS vs CTR): failed to enhance the activity | inhibition of AKT and ERK1/2 signaling (AKT and ERK1/2 signaling [5]): more pronounced inhibition | inhibition of AKT and ERK1/2 signaling (AKT and ERK1/2 signaling [6]): more pronounced inhibition

COc1cc(N2CCC(N3CCN(C)CC3)CC2)ccc1Nc1ncc(Cl)c(Nc2ccccc2S(=O)(=O)C(C)C)n1 [TAE684]
effect of STS conditions on activity (viability of H3122 cells) (H3122 cells [1]): strongly potentiated

Source: patent US10512648B2, “Tyrosine kinase inhibitors for use in a method of treating cancer in association with a reduced caloric intake” (UNIVERSITÀ DEGLI STUDI DI GENOVA, priority 2014, dated 2019)
